Results from US9656945B2, “3-acyl-ingenols II” (LEO LABORATORIES LIMITED, priority 2010, dated 2017).
Like-named read-outs stand apart in the source and are kept apart here.

Tests used:
Assay type in all cases: cell-based
[1] = tested on: PMN's (polymorphonuclear leukocytes); assay: Neutrophil oxidative burst assay; conditions: Leukocyte, 40 min, read-out: Neutrophil oxidative burst Rel EC50 range
Description: PMN's (polymorphonuclear leukocytes) were isolated and purified from fresh buffy coats by sequential sedimentation, density centrifugation and lysis of contaminating erythrocytes. Buffy coats were incubated with 2% methocel for 30-45 min to differentially sediment red blood cells. The leukocyte-rich supernatant was transferred to lymphoprep tubes to remove mononuclear cells by density centrifugation (400×g, 30 min). The pellet was resuspended and any remaining erythrocytes lysed using 0.2% NaCl for 30 sec before restoring isotonicity by the addition of 1.2% NaCl. This step was repeated until the cell pellet appears relatively free of red blood cells. Cells were resuspended in DPBS (Dulbecco's Phosphate Buffered Saline) (w.o. Ca^2+, Mg^2+) and the concentration adjusted to 1.4×10^6 cells/ml in HBSS (Hanks Balanced Salt solution) (w Ca^2+, Mg^2+) containing 0.1% BSA (Bovine Serum Albumin) and 5 mM glucose just prior to assay initiation. Titrated reference and test compounds were pre-mixed with HE (Hydroethidine) (10 μM final assay concentration) before addition to 96-well plates containing 2.5×10^5 cells. Following 40 min incubation at RT, changes in the respiratory burst was estimated by measuring fluorescence at 579 nm (excitation: 485 nm) using an Envision plate reader.
Test compound titration curves were fitted to a four-parameter sigmoidal curve after normalizing the effect of the test compound to the effect of the positive control (5×10^−7 M PEP0005). Rel EC50 denotes the concentration of test compound producing an effect that is midway between the fitted top and bottom. Abs EC50 is the concentration of test compound that provokes a response corresponding to 50% of the maximal effect associated with the positive control (5×10^−7 M PEP0005).

[2] = tested on: HeLa cells (ATCC CCL-002); assay: Necrosis assay; conditions: Homo sapiens, 0.5 h, read-out: HeLa necrosis EC50 range
Description: HeLa cells (ATCC CCL-002) were grown in minimal essential medium (Invitrogen catalog no. 42360) containing 10% fetal bovine serum, 100 IU/ml penicillin and 100 μg/ml streptomycin. 4,000-6,000 cells were seeded into 96-well black ViewPlates-plates, clear bottom, (Perkin Elmer) in 100 μl medium and incubated overnight. Compounds were dissolved and pre-diluted in DMSO in 96-well polypropylene plates (Greiner) in a concentration range of 15 μM to 600 μM. At the time of the experiment cell plates were placed on heating blocks at 37° C., medium was removed and 40 μl fresh, pre-warmed medium was added per well. Cells were incubated for 15 min before addition of compounds. In parallel, 3 μl of compounds were diluted with 197 μl growth medium on a Tecan freedom-EVO pipetting station using 250 μl/s pipetting speed, in order to ensure effective mixing of the highly concentrated compound solutions with the aqueous phase. These pre-dilution plates were then equilibrated on heating blocks at 37° C. for 10 min. 80 μl pre-diluted compound were transferred manually to the corresponding wells containing HeLa cells yielding compound concentrations of 10 μM to 400 μM. Control conditions were 1% DMSO in growth medium (100% viability) and 400 μM ingenol mebutate in growth medium (0% viability). Plates were incubated on the heating blocks at 37° C. for 30 min. At the end of the incubation 10 μl PrestoBlue reagent (Invitrogen) were added to each well, plates were sealed with black seal, followed by incubation at 37° C. for 10 min with gentle shaking (150 rpm). Subsequently, plates were placed at room temperature for 20-30 min. Plates were read immediately after on an Envision Fluorescence reader (Perkin Elmer) with excitation at 535 nm and emission at 630 nm. Test compound titration curves were fitted to a four-parameter sigmoidal curve after normalizing the effect of the test compound to the effect of the positive control (4 10^−4 M PEP0005/ingenol mebutate). AbsEC50 denotes the concentration of test compound producing 50% effect.

[3] = tested on: Primary human epidermal keratinocytes, HeKa; assay: HeKa cytokine release (IL-8) assay
Description: Primary human epidermal keratinocytes, HeKa, were seeded (10.000 cells/well) in 96-well plates the day before the assay. Test compounds were diluted in DMSO (dimethyl sulfoxide) and further diluted in assay medium and pipetted into wells of 96 well-plates containing HeKa cells. The plates were incubated for 6 h at 37° C. in humidified air with 5% CO2. Plates are centrifuged briefly to spin down cells at 4° C., the supernatant was removed and analysed by Meso Scale Discovery (MSD) 4-spot cytokine assay (Pro-inflammatory II Ultra Sensitive kit, MSD, MD, USA). The MSD assay employs a sandwich immunoassay format where capture antibodies were coated in a patterned array on the bottom of the wells of a 4-Spot-Multi-MSD plate. Standard samples were incubated in the MULTI-SPOT plates as well, and the cytokine (IL-8) binds to its corresponding capture antibody spot. The cytokine level was quantitated on a SECTOR™ Imager using a cytokine-specific Detection Antibody labelled with MSD SULFO-TAG™ reagent.
Test compound titration curves were fitted to a four-parameter sigmoidal curve after normalizing the effect of the test compound to the effect of the positive control (1.5×10^−7 M PEP0005). Rel EC50 denotes the concentration of test compound producing an effect that is midway between the fitted top and bottom.

[4] = 6 h, read-out: HeKa cytokine release (IL-8) Rel EC50 range

Row | SMILES | EC50 [1] [nM] | EC50 [2] [nM] | EC50 [3, 4] [nM] | EC50 ([1]; 40 min incubation at RT, normalized to positive control 5×10^−7 M PEP0005) [nM] | EC50 ([2]; 30 min at 37° C., PrestoBlue, normalized to 4 10^−4 M PEP0005/ingenol mebutate) [nM] | EC50 ([3]; 6 h at 37° C., normalized to positive control 1.5×10^−7 M PEP0005, read-out: HeKa cytokine release (IL-8) Rel EC50 range) [nM]
1 | CC1=C[C@]23C(=O)[C@@H](C=C(CO)[C@@H](O)[C@]2(O)[C@H]1OC(=O)c1c(N)cccc1F)[C@H]1[C@@H](C[C@H]3C)C1(C)C [Compound 341, Ingenol 3-(2-amino-6-fluoro-benzoate)] | < 20 | < 150000 | < 20 | – | – | –
2 | CNc1cccc(Cl)c1C(=O)O[C@H]1C(C)=C[C@]23C(=O)[C@@H](C=C(CO)[C@@H](O)[C@]12O)[C@H]1[C@@H](C[C@H]3C)C1(C)C [Compound 342, Ingenol 3-(2-chloro-6-methylamino-benzoate)] | 20 to 100 | < 150000 | < 20 | – | – | –
3 | CNc1cccc(F)c1C(=O)O[C@H]1C(C)=C[C@]23C(=O)[C@@H](C=C(CO)[C@@H](O)[C@]12O)[C@H]1[C@@H](C[C@H]3C)C1(C)C [Compound 343, Ingenol 3-(2-fluoro-6-methylamino-benzoate)] | < 20 | < 150000 | < 20 | – | – | –
4 | CC1=C[C@]23C(=O)[C@@H](C=C(CO)[C@@H](O)[C@]2(O)[C@H]1OC(=O)C1=C(C)CCCC1(C)C)[C@H]1[C@@H](C[C@H]3C)C1(C)C [Compound 345, Ingenol 3-(2,6,6-trimethylcyclohexene-1-carboxylate)] | < 20 | < 150000 | < 20 | – | – | –
5 | C/C=C(/C)C(=O)O[C@H]1C(C)=C[C@]23C(=O)[C@@H](C=C(CO)[C@@H](O)[C@]12O)[C@H]1[C@@H](C[C@H]3C)C1(C)C [Ingenol-3-angelate, reference compound] | – | – | – | < 20 | 150000 to 350000 | < 20
